Assays:
[1] = FUra versus FdUrd; cited from earlier work
[2] = tested on: angiogenesis; conditions: cited from earlier work
[3] = substrate: O=c1[nH]c(=O)n([C@H]2C[C@H](O)[C@@H](CO)O2)cc1[N+](=O)[O-]; assay: UV-Vis spectrophotometric thymidine phosphorylase assay with 5NdU as substrate; assay type: biochemical; conditions: other: substrate, pH 6.01
Experimental: Binding constants were determined by UV-Vis spectrophotometery using 2′-deoxy-5-nitrouridine (5NdU) as the substrate (Km=50 μM at pH 6.01). The reaction mixture consisted of inhibitor (approximately 1/10×Ki to 10×Ki), 50 mM MES (pH 6.01), 150 mM NaCl, 1 mM EDTA, 5 mM inorganic phosphate, and 250 μM 5NdU in a total of 1 ml. Thymidine phosphorylase was added to approximately 10 nM (1 nM enzyme was used for D723333-P) and the reaction was monitored at λ=347 nm for 30 min. At least five concentrations of inhibitor were used for each compound and experiments were repeated in triplicate. Initial rates were determined by a linear least-squares fit. The Ki for each compound was then determined using the following equation: [formula] where ν is the rate of reaction and V is the maximal rate in the absence of inhibitor.

**Q.** Which “fold less potent than FdUrd” value [1] does the source give for `O=c1[nH]cc(F)c(=O)[nH]1` [FUra, 5-fluorouracil] here?
**A.** Its value is 100 to 1000 fold.

**Q.** For `N=C1CCCN1Cc1[nH]c(=O)[nH]c(=O)c1Cl` [TPI], which “antiangiogenic activity in vivo” value [2] is on record?
**A.** Its value is “some antiangiogenic activity in vivo”.

B1: Thymidine phosphorylase (Homo sapiens) (protein)
chain: APPAPGDFSGEGSQGLPDPSPEPKQLPELIRMKRDGGRLSEADIRGFVAAVVNGSAQGAQIGAMLMAIRLRGMDLEETSVLTQALAQSGQQLEWPEAWRQQLVDKHSTGGVGDKVSLVLAPALAACGCKVPMISGRGLGHTGGTLDKLESIPGFNVIQSPEQMQVLLDQAGCCIVGQSEQLVPADGILYAARDVTATVDSLPLITASILSKKLVEGLSALVVDVKFGGAAVFPNQEQARELAKTLVGVGASLGLRVAAALTAMDKPLGRCVGHALEVEEALLCMDGAGPPDLRDLVTTLGGALLWLSGHAGTQAQGAARVAAALDDGSALGRFERMLAAQGVDPGLARALCSGSPAERRQLLPRAREQEELLAPADGTVELVRALPLALVLHELGAGRSRAGEPLRLGVGAELLVDVGQRLRRGTPWLRVHRDGPALSGPQSRALQEALVLSDRAPFAAPSPFAELVLPPQQ
**Q.** With B1 as the molecule, how does the Km [3] read?
**A.** Its Km is 50 µM.
